US12410133B2, “Crystalline (r)-5-carbamoylpyridin-3-yl-2-methyl-4-(3-(trifluoromethoxy)benzyl)piperazine-1-carboxylate, compositions and methods of use thereof” (Celgene Corporation, priority 2018, dated 2025)
In brackets after ≈: the same amount, converted by molar mass. Marks after values point to notes of the source that are not given here.

What was measured:
[1] = Accelerated solid-state stability study of Form A; assay type: physicochemical
Description: Solid-state stability evaluation (accelerated conditions) was performed on Form A under conditions of 25° C./60% RH and 40° C./75% RH. The detailed procedure utilized for stability evaluation is listed below:
1) weigh approximately 30 mg of Form A sample into each 3-mL vial;
2) cover the vial with Parafilm® and poke 15 holes on the Parafilm® with a needle;
3) put the vial in a stability chamber of 25° C./60% RH or 40° C./75% RH; and
4) sample for XRPD, TGA, DSC, HPLC purity and assay tests after 2, 4 and 6 weeks and 3 months.

[2] = physchem; conditions: thermodynamic from solid
[3] = Solubility of Form A in physiologically relevant media (37° C.); assay type: physicochemical
[4] = Form A solubility study in FaSSIF-v2 and FeSSIF-v2 at 37° C.; assay type: physicochemical; conditions: for solubility at 2 h / solubility at 24 h / Final Form: 37° C.; for Final Form: residual solid by XRPD
Description: Solubility was evaluated at 2 hr and 24 hr for Form A in FaSSIF-v2 and FeSSIF-v2 at 37° C. Approximately 40 mg of Form A sample was added in 2.0 mL of corresponding bio-medium to form a suspension, followed by shaking at 500 rpm at 37° C. After 2 hr and 24 hr, the supernatants were isolated by centrifugation (7000 rpm for 5 min) followed by filtration through […] PTFE membrane and were tested by HPLC concentration and pH. The residual solids were characterized by XRPD.

For `C[C@@H]1CN(Cc2cccc(OC(F)(F)F)c2)CCN1C(=O)Oc1cncc(C(N)=O)c1` [Form A, (R)-5-carbamoylpyridin-3-yl-2-methyl-4-(3-(trifluoromethoxy)benzyl)piperazine-1-carboxylate], the “Imp.1 (RRT 0.81)” value ([1]; 6 weeks, 40° C./75% RH) was 0.07 % Area, the “Imp.2 (RRT 1.04)” value ([1]; 6 weeks, 40° C./75% RH) was “— (—: <0.05.)” and the “Imp.3 (RRT 1.74)” value ([1]; 6 weeks, 40° C./75% RH) was 0.07 % Area. The “Physical and chemical stability under accelerated conditions” value ([1]; 25° C./60% RH and 40° C./75% RH for 3 months) was “good physical and chemical stability”, the “API (RRT 1.00)” value ([1]; Initial) was 99.86 % Area and the Crystal form ([1]; Initial) was “Form A”. The “HPLC Purity” value ([1]; Initial) was 99.86 area %, the “Imp.1 (RRT 0.81)” value ([1]; Initial) was 0.09 % Area and the “Imp.2 (RRT 1.04)” value ([1]; Initial) was “— (—: <0.05.)”. For the same molecule, the “Imp.3 (RRT 1.74)” value ([1]; Initial) was 0.05 % Area, the “Chiral Purity” value ([1]; Initial, starting material after stored at −20° C. for about 3 months) was 100* and the “Form change or HPLC purity decrease” value ([1]; after 3 months at both conditions (25° C./60% RH and 40° C./75% RH)) was “no significant form change or HPLC purity decrease was observed”. It also gave a solubility ([2]; organic solvent or mixture, Approximate solubility, 1,4-dioxane, RT) of over 22 mg/mL, a solubility ([2]; organic solvent or mixture, Approximate solubility, 2-MeTHF, RT) of over 23 mg/mL and a solubility ([2]; organic solvent or mixture, Approximate solubility, ACN, RT) of over 24 mg/mL. For the same molecule, the solubility ([2]; organic solvent or mixture, Approximate solubility, Acetone, RT) was over 17 mg/mL, the solubility ([2]; organic solvent or mixture, Approximate solubility, Anisole, RT) was over 20 mg/mL and the solubility ([2]; organic solvent or mixture, Approximate solubility, CHCl3, RT) was over 19 mg/mL. The solubility ([2]; organic solvent or mixture, Approximate solubility, DCM, RT) was over 19 mg/mL, the solubility ([2]; organic solvent or mixture, Approximate solubility, DMSO, RT) was over 20 mg/mL and the solubility ([2]; organic solvent or mixture, Approximate solubility, EtOAc, RT) was over 26 mg/mL. The solubility ([2]; organic solvent or mixture, Approximate solubility, EtOH, RT) was over 17 mg/mL, the solubility ([2]; organic solvent or mixture, Approximate solubility, IPA, RT) was over 24 mg/mL and the solubility ([2]; organic solvent or mixture, Approximate solubility, IPAC, RT) was over 21 mg/mL. The solubility ([2]; organic solvent or mixture, Approximate solubility, MIBK, RT) was over 24 mg/mL, the solubility ([2]; organic solvent or mixture, Approximate solubility, MTBE, RT) was 7.7 to 11.5 mg/mL (≈ 17600 to 26200 µM) and the solubility ([2]; organic solvent or mixture, Approximate solubility, MeOH, RT) was over 23 mg/mL. For the same molecule, the solubility ([2]; organic solvent or mixture, Approximate solubility, NMP, RT) was over 21 mg/mL, the solubility ([2]; organic solvent or mixture, Approximate solubility, THF, RT) was over 26 mg/mL and the solubility ([2]; organic solvent or mixture, Approximate solubility, n-heptane, RT) was under 0.9 mg/mL. The solubility ([2]; organic solvent or mixture, Approximate solubility, toluene, RT) was 4.5 to 6 mg/mL (≈ 10300 to 13700 µM), the solubility ([2]; water, Approximate solubility, H2O, RT) was over 1 mg/mL and the solubility ([3]; HCl/NaCl buffer pH 1.0, simulated gastric fluid, thermodynamic from solid, pH 1.0 HCl/NaCl buffer, final measured pH 1.47) was over 20000 µg/mL. It also gave a solubility ([3]; acetate buffer pH 4, aqueous buffer, thermodynamic from solid, pH 4 Acetate buffer, final measured pH 4.18) of 696 µg/mL (≈ 1590 µM), a solubility ([3]; acetate buffer pH 5, aqueous buffer, thermodynamic from solid, pH 5 Acetate buffer, final measured pH 5.14) of 91 µg/mL (≈ 208 µM) and a solubility ([3]; aqueous buffer, thermodynamic from solid, pH 4 (0.0001N HCl), final measured pH 7.78) of 11 µg/mL (≈ 25.1 µM). It also gave a solubility ([3]; pH 4.9, aqueous buffer, thermodynamic from solid, pH 3 (0.001N HCl), final measured pH 4.90) of 57 µg/mL (≈ 130 µM), a solubility ([3]; pH 8.1, thermodynamic from solid, Water, final measured pH 8.10) of 12 µg/mL (≈ 27.4 µM) and a solubility ([3]; phosphate buffer pH 2.5, aqueous buffer, thermodynamic from solid, pH 2.5 Phosphate buffer, final measured pH 3.44) of 4330 µg/mL (≈ 9870 µM). It also gave a solubility ([3]; phosphate buffer pH 3, pH 4.2, aqueous buffer, thermodynamic from solid, pH 3 Phosphae buffer, final measured pH 4.20) of 1250 µg/mL (≈ 2850 µM), a solubility ([3]; phosphate buffer pH 6.8, aqueous buffer, thermodynamic from solid, pH 6.8 Phosphate buffer, final measured pH 6.88) of 7 µg/mL (≈ 16 µM) and a solubility ([3]; phosphate buffer pH 8.0, pH 8.1, aqueous buffer, thermodynamic from solid, pH 8.0 Phosphate buffer, final measured pH 8.10) of 5 µg/mL (≈ 11.4 µM). The solubility ([3]; simulated gastric fluid, thermodynamic from solid, SGF with pepsin, final measured pH 1.75) was over 20000 µg/mL, the solubility ([3]; simulated gastric fluid, thermodynamic from solid, pH 1 (0.1N HCl), final measured pH 1.48) was over 20000 µg/mL and the solubility ([3]; simulated gastric fluid, thermodynamic from solid, pH 2 (0.01N HCl), final measured pH 3.55) was 3860 µg/mL (≈ 8800 µM). For the same molecule, the solubility ([3]; thermodynamic from solid, FaSSIF, final measured pH 6.48) was 146 µg/mL (≈ 333 µM), the solubility ([3]; thermodynamic from solid, FeSSIF, final measured pH 5.17) was 1020 µg/mL (≈ 2320 µM) and the solubility at 2 h ([4]; FaSSIF-v2, thermodynamic from solid, FaSSIF (pH 6.5), 2 hr, final pH 6.5) was 63 µg/mL (≈ 144 µM). For the same molecule, the solubility at 24 h ([4]; FaSSIF-v2, thermodynamic from solid, FaSSIF (pH 6.5), 24 hr, final pH 6.6) was 63 µg/mL (≈ 144 µM), the “Form change after solubility evaluation (XRPD patterns)” value ([4]; FaSSIF-v2 and FeSSIF-v2, 37° C., 2 hr and 24 hr) was “no form change was observed” and the solubility at 2 h ([4]; FeSSIF-v2, thermodynamic from solid, FeSSIF (pH 5.8), 2 hr, final pH 5.9) was 1000 µg/mL (≈ 2280 µM). The solubility at 24 h ([4]; FeSSIF-v2, thermodynamic from solid, FeSSIF (pH 5.8), 24 hr, final pH 6.0) was 1100 µg/mL (≈ 2510 µM), the “Final Form” value ([4]; FaSSIF (pH 6.5), 2 hr) was “Form A” and the “Final Form” value ([4]; FaSSIF (pH 6.5), 24 hr) was “Form A”. For the same molecule, the “Final Form” value ([4]; FeSSIF (pH 5.8), 2 hr) was “Form A” and the “Final Form” value ([4]; FeSSIF (pH 5.8), 24 hr) was “Form A”.
